In patent US20230040021A1 (priority 2019, published 2023):

Columns and labels:
[1] = test system: HBcAg antigen-specific IFN-γ; design: species or system C57BL/6(N) mice; details: mouse, in vivo
[2] = test system: HBsAg antigen-specific IFN-γ; design: species or system C57BL/6(N) mice; details: mouse, in vivo
[3] = test system: herpes gE antigen-specific IFN-γ; details: CpG T1 10 + saponin 5 + gE 5 μg/mouse; FIG. 15
Method: Experimental steps: on Day 7 after the immunization of mice, the spleen lymphocytes were prepared according to a conventional method, and the details were as follows: the spleens were taken aseptically by being cut with sterile forceps and scissors, and placed in a 70 μm cell strainer, which was placed in a plate containing 2 ml of pre-chilled 2% FBS (purchased from GIBCO)-PBS; the spleens were ground using a grinding rod, and the spleen cells entered the plate through the meshes to obtain a cell suspension, and then the suspension was filtered by a 40 μm cell strainer (purchased from BD) and put into a 50 ml sterile centrifuge tube by using a Pasteur pipet; it was centrifuged at 500×g at 4° C. for 5 min; the supernatant was discarded, and then 2 ml of 1×erythrocyte disruption agent (purchased from BD) was added to re-suspend the cells, and the resultant was allowed to stand for 5 min at 4° C., protected from light to disrupt the red blood cells; 10 ml of 2% FBS-PBS was added to terminate the erythrocyte disruption reaction; the resultant was centrifuged at 500×g at 4° C. for 5 min, the supernatant was discarded, and then 5 ml of 2% FBS-PBS was added to re-suspend the cells for later use.
C57BL/6(N) mice, female, 5 weeks old, 48 mice, purchased from Shanghai SLRC Laboratory Animal Co. Ltd.
2) QS-21 (CAS: NO. […]

| Substance | immune effect: induced production level of HBcAg-specific IFN-γ [1] | immune effect: induced production level of HBsAg-specific IFN-γ [2] | induced production level of gE-specific IFN-γ [3] |
| --- | --- | --- | --- |
| TGACTGTGAACGTTCGAGATGA (SEQ ID NO: 3) [CpG 1018] | superior to the CpG adjuvants of type A and the CpG adjuvants of type C | superior to the CpG adjuvants of type A and the CpG adjuvants of type C |  |
| TGTCGTCGTCGTTTGTCGTTTGTCGTT (SEQ ID NO: 11) [CPG D2] | lower than those induced by the CpG adjuvants of type A and the CpG adjuvants of type C | lower than those induced by the CpG adjuvants of type A and the CpG adjuvants of type C |  |
| TCCATGACGTTCCTGACGTT (SEQ ID NO: 5) [CpG 1826] | superior to the CpG adjuvants of type A and the CpG adjuvants of type C | superior to the CpG adjuvants of type A and the CpG adjuvants of type C |  |
| QS-21 [QS21] |  |  | the best effect |
| TCGTCGTTTTGTCGTTTTGTCGTT (SEQ ID NO: 4) [CpG 7909] | superior to the CpG adjuvants of type A and the CpG adjuvants of type C | superior to the CpG adjuvants of type A and the CpG adjuvants of type C |  |
| TCGACGTTCGTCGTTCGTCGTTC (SEQ ID NO: 9) [CpG 684] | superior to the CpG adjuvants of type A and the CpG adjuvants of type C | superior to the CpG adjuvants of type A and the CpG adjuvants of type C |  |
